Results published in patent US6294526A, “Use of flavone derivatives for induction of β-lactam-sensitivity of MRSA” (priority 1998, dated 2001).
≈ marks a conversion by molar mass, not a printed value. Read-outs that look alike come from different tables or passages of the source.

Columns and labels:
MRSA and MSSA = assay: antibacterial activity (MIC) by agar plate dilution method, MRSA and MSSA strains together; type: cell-based, Staphylococcus aureus; details: MRSA and MSSA, Table 2
Method: The screening of the present invention may be carried out according to the agar plate dilution method designated by the Japan Society of Chemotherapy (Chemotherapy 29(1), 76-79 (1981)). Mueller-Hinton agar base semi-synthetic medium may be used for a plate culture medium for a sensitivity test together with an inoculating bacteria solution which may be prepared by culturing bacteria to be tested at 37° C. for 20 hours diluted with 8.5% by isotonic sodium chloride solution to 10^6 CFU/ml. Diluted β-lactam solutions are prepared by two times serial dilution. 1 ml of the diluted β-lactam solution and 1 ml of a predetermined concentration of a sample to be tested are added to 8 ml of the plate culture medium for a sensitivity test. To the resultant plate culture medium for sensitivity test, the bacteria are inoculated using a microplanter (SAKUMASEISAKUSYO Co.), cultured for 20 hours at 37° C. followed by assessing for a minimum inhibition concentration (MIC). […]
Antibacterial activity is determined for flavones including flavone, flavonol, flavanone, isoflavone, catechin and calchone, as follows:
(§1) Flavones were dissolved in methanol and the others were dissolved in 0.1 N NaOH. A method for determination of antibacterial activity is, as described above, an agar plate dilution method designated by the Japan Society of Chemotherapy (Chemotherapy 29(1), 76-79 (1981)) to determine MIC value. MIC80 is a concentration at which a strain is prohibited to proliferate by 80% and MIC50 is a concentration at which a strain is prohibited to proliferate by 50%.

MSSA = assay: antibacterial activity (MIC) by agar plate dilution method, MSSA strains; type: cell-based, Methicillin-sensitive Staphylooccus aureus
Method: (§2) The screening of the present invention may be carried out according to the agar plate dilution method designated by the Japan Society of Chemotherapy (Chemotherapy 29(1), 76-79 (1981)). Mueller-Hinton agar base semi-synthetic medium may be used for a plate culture medium for a sensitivity test together with an inoculating bacteria solution which may be prepared by culturing bacteria to be tested at 37° C. for 20 hours diluted with 8.5% by isotonic sodium chloride solution to 10^6 CFU/ml. Diluted β-lactam solutions are prepared by two times serial dilution. 1 ml of the diluted β-lactam solution and 1 ml of a predetermined concentration of a sample to be tested are added to 8 ml of the plate culture medium for a sensitivity test. To the resultant plate culture medium for sensitivity test, the bacteria are inoculated using a microplanter (SAKUMASEISAKUSYO Co.), cultured for 20 hours at 37° C. followed by assessing for a minimum inhibition concentration (MIC).
(§3) (A) Antibacterial activities of ether extract from Scutellaria barbata, SB-1 (isolated from Scutellaria barbata), apigenin (authentic sample) and luteolin (authentic sample) were shown in Table 1.
as §1

MRSA [1] = assay: antibacterial activity (MIC) by agar plate dilution method, MRSA strains; type: cell-based, methicillin-resistant Staphylococcus aureus
Method: as §2, §3, §1

MRSA [2] = assay: antibacterial activity of antibiotics alone and in the presence of apigenin (4 μg/ml), MRSA; type: cell-based, methicillin-resistant Staphylococcus aureus; details: apigenin 4 μg/ml or less than its MIC
Method: as §2
(D) Then use of 4 μg/ml of apigenin and other antibiotics at the same time was studied. The antibiotics are penicillin , ampicillin, cephalothin, cefoxitin, cefuroxime, cefotaxime, vancomycin, streptomycin, chloramphenicol, kanamycin, erythromycin, nalixic acid and tetracycline.

MIC (MSSA; MSSA strain No. 21): > 250 µg/mL
MIC (MSSA; MSSA strain No. 22): > 250 µg/mL
MIC (MSSA; MSSA strain No. 24): 3.9 µg/mL (≈ 14.4 µM)
MIC (MSSA; MSSA strain No. 24, listed as SB-1): 31.3 µg/mL (≈ 116 µM)
MIC (MSSA; MSSA strain No. 25): 3.9 µg/mL (≈ 14.4 µM)
MIC (MSSA; MSSA strain No. 27): 15.6 µg/mL (≈ 57.7 µM)
MIC (MSSA; MSSA strain No. 27, listed as SB-1): 31.3 µg/mL (≈ 116 µM)
MIC50 (MSSA; Staphylococcus aureus, 20 h, MSSA (7 strains), read-out: MIC50): 15.6 µg/mL (≈ 57.7 µM)
MIC (MSSA; Staphylococcus aureus, MSSA, 20 h, MSSA strain No. 21, read-out: MIC): 250 µg/mL (≈ 925 µM)
MIC (MSSA; Staphylococcus aureus, MSSA, 20 h, MSSA strain No. 22, read-out: MIC): 250 µg/mL (≈ 925 µM)
MIC (MSSA; Staphylococcus aureus, MSSA, 20 h, MSSA strain No. 23, read-out: MIC): 15.6 µg/mL (≈ 57.7 µM)
MIC (MSSA; Staphylococcus aureus, MSSA, 20 h, MSSA strain No. 25, read-out: MIC): 7.8 µg/mL (≈ 28.9 µM)
MIC (MSSA; Staphylococcus aureus, MSSA, 20 h, MSSA strain No. 26, read-out: MIC): 15.6 µg/mL (≈ 57.7 µM)
MIC (MRSA [1]; MRSA strain No. 1): 7.8 µg/mL (≈ 28.9 µM)
MIC (MRSA [1]; MRSA strain No. 2): 3.9 µg/mL (≈ 14.4 µM)
MIC (MRSA [1]; MRSA strain No. 3): 7.8 µg/mL (≈ 28.9 µM)
MIC (MRSA [1]; MRSA strain No. 4): 7.8 µg/mL (≈ 28.9 µM)
MIC (MRSA [1]; MRSA strain No. 5): 3.9 µg/mL (≈ 14.4 µM)
MIC (MRSA [1]; MRSA strain No. 6): 3.9 µg/mL (≈ 14.4 µM)
MIC (MRSA [1]; MRSA strain No. 8): 3.9 µg/mL (≈ 14.4 µM)
MIC (MRSA [1]; MRSA strain No. 9): 3.9 µg/mL (≈ 14.4 µM)
MIC (MRSA [1]; MRSA strain No. 9, listed as SB-1): 15.6 µg/mL (≈ 57.7 µM)
MIC (MRSA [1]; MRSA strain No. 13): 7.8 µg/mL (≈ 28.9 µM)
MIC (MRSA [1]; MRSA strain No. 13, listed as SB-1): 31.3 µg/mL (≈ 116 µM)
MIC (MRSA [1]; MRSA strain No. 14): 7.8 µg/mL (≈ 28.9 µM)
MIC (MRSA [1]; MRSA strain No. 14, listed as SB-1): 31.3 µg/mL (≈ 116 µM)
MIC (MRSA [1]; MRSA strain No. 15): 7.8 µg/mL (≈ 28.9 µM)
MIC (MRSA [1]; MRSA strain No. 16): 7.8 µg/mL (≈ 28.9 µM)
MIC (MRSA [1]; MRSA strain No. 17): 3.9 µg/mL (≈ 14.4 µM)
MIC50 (MRSA [1]; Staphylococcus aureus, 20 h, MRSA (20 strains), read-out: MIC50): 7.8 µg/mL (≈ 28.9 µM)
MIC (MRSA [1]; Staphylococcus aureus, MRSA, 20 h, MRSA strain No. 1, read-out: MIC): 15.6 µg/mL (≈ 57.7 µM)
MIC (MRSA [1]; Staphylococcus aureus, MRSA, 20 h, MRSA strain No. 2, read-out: MIC): 7.8 µg/mL (≈ 28.9 µM)
MIC (MRSA [1]; Staphylococcus aureus, MRSA, 20 h, MRSA strain No. 3, read-out: MIC): 15.6 µg/mL (≈ 57.7 µM)
MIC (MRSA [1]; Staphylococcus aureus, MRSA, 20 h, MRSA strain No. 4, read-out: MIC): 15.6 µg/mL (≈ 57.7 µM)
MIC (MRSA [1]; Staphylococcus aureus, MRSA, 20 h, MRSA strain No. 5, read-out: MIC): 7.8 µg/mL (≈ 28.9 µM)
MIC (MRSA [1]; Staphylococcus aureus, MRSA, 20 h, MRSA strain No. 6, read-out: MIC): 7.8 µg/mL (≈ 28.9 µM)
MIC (MRSA [1]; Staphylococcus aureus, MRSA, 20 h, MRSA strain No. 7, read-out: MIC): 3.9 µg/mL (≈ 14.4 µM)
MIC (MRSA [1]; Staphylococcus aureus, MRSA, 20 h, MRSA strain No. 8, read-out: MIC): 7.8 µg/mL (≈ 28.9 µM)
MIC (MRSA [1]; Staphylococcus aureus, MRSA, 20 h, MRSA strain No. 10, read-out: MIC): 15.6 µg/mL (≈ 57.7 µM)
MIC (MRSA [1]; Staphylococcus aureus, MRSA, 20 h, MRSA strain No. 11, read-out: MIC): > 250 µg/mL
MIC (MRSA [1]; Staphylococcus aureus, MRSA, 20 h, MRSA strain No. 12, read-out: MIC): > 250 µg/mL
MIC (MRSA [1]; Staphylococcus aureus, MRSA, 20 h, MRSA strain No. 15, read-out: MIC): 15.6 µg/mL (≈ 57.7 µM)
MIC (MRSA [1]; Staphylococcus aureus, MRSA, 20 h, MRSA strain No. 16, read-out: MIC): 15.6 µg/mL (≈ 57.7 µM)
MIC (MRSA [1]; Staphylococcus aureus, MRSA, 20 h, MRSA strain No. 17, read-out: MIC): 7.8 µg/mL (≈ 28.9 µM)
MIC (MRSA [1]; Staphylococcus aureus, MRSA, 20 h, MRSA strain No. 18, read-out: MIC): > 250 µg/mL
MIC (MRSA [1]; Staphylococcus aureus, MRSA, 20 h, MRSA strain No. 19, read-out: MIC): > 250 µg/mL
MIC (MRSA [1]; Staphylococcus aureus, MRSA, 20 h, MRSA strain No. 20, read-out: MIC): 31.3 µg/mL (≈ 116 µM)
Compound: O=c1cc(-c2ccc(O)cc2)oc2cc(O)cc(O)c12 [Apigenin, apigenin]
antibacterial activity (in words) (MRSA and MSSA): showed antibacterial activity
inhibition of β-lactam resistant MRSA / improvement of antibacterial effect with apigenin (in words) (MRSA [2]): could improve antibacterial effect of methicillin on MRSA
